Columns and labels:
[1] = biological target: T1, HepG2 cells that express ENPP1 on their surface (Homo sapiens, UniProt P22413); assay: Cellular inhibition of cGAMP hydrolysis on HepG2 cells (cGAMP ELISA); assay type: cell-based; conditions: 100 ng/mL 2'3'-cGAMP, overnight (20 h), read-out: EC50, protection of spiked-in cGAMP from hydrolysis
T1 construct: HepG2 cells that express ENPP1 on their surface; host or cells: HepG2
T1 sequence (P22413 1-925): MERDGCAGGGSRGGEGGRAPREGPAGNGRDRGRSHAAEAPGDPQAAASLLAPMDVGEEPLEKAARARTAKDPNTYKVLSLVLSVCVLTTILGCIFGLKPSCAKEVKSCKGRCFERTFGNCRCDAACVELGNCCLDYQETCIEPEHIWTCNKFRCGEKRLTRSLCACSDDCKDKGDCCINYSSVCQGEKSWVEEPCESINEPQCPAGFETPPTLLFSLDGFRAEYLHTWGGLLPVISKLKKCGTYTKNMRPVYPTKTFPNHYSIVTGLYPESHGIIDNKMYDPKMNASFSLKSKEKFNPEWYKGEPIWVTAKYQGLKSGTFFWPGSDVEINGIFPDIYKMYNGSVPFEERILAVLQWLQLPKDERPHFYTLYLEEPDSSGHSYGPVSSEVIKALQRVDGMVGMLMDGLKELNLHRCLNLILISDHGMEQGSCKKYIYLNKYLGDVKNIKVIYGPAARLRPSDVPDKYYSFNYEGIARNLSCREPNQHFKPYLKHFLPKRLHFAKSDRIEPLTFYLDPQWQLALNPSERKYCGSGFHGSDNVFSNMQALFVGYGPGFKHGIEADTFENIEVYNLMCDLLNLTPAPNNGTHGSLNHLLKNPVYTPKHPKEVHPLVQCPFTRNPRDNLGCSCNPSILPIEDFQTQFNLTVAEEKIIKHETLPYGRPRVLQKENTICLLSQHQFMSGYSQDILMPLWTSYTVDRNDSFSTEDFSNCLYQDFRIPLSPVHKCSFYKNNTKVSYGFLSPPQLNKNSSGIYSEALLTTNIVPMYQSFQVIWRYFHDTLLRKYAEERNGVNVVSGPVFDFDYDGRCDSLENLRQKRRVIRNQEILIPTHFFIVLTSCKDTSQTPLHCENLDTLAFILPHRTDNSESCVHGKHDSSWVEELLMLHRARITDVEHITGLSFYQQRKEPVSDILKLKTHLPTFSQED
Method: (§1) Enzymatic inhibition assays were performed by incubating 1.5 nM ENPP1 (R&D Systems cat# 6136-EN-010) with serial dilutions of Vir-3 for 15 minutes at 37 °C in buffer (50mM Tris pH 8.0, 250mM NaCl, 0.5mM CaCl2, 1uM ZnCl2, 1% DMSO) before adding 20 uM 2’3’-cGAMP (Invivogen cat.# tlrl-nacga23). The reaction was incubated for 30 min at 37 °C prior to assessing the generated AMP using the AMP-Glo assay (Promega cat.# V5012). Cellular inhibition of cGAMP hydrolysis was performed using HepG2 cells pre-incubated with serial dilutions of Vir-3 in DMEM + 10% Charcoal stripped FBS for 30 min at 37 °C with 5% CO2. 100 ng/mL of 2’3’-cGAMP was then added to the cells and incubated for 20 h at 37 °C with 5% CO2. Media was then removed and the remaining cGAMP was quantified using a 2’3’-cGAMP ELISA kit (Cayman Chemical cat.# 501700).

MC38 tumors = assay: MC38 tumor model, VIR3 oral gavage +/- 12 Gy focal RT, survival; assay type: in vivo, mouse
Method: (§2) Tumors were implanted subcutaneously into the right flank as follows: C57BL/6 2 × 10^5 MC38; BALB/c 2 × 10^5 CT26. When tumors were approximately 5 mm in average diameter at approximately 10–14 days following implantation, mice were randomized to receive treatment with CT-guided radiation using the Small Animal Radiation Research Platform (SARRP) from XStrahl. Dosimetry was performed using Murislice software from XStrahl. The SARRP delivered a single dose of 12 Gy to an isocenter within the tumor using a 10 mm x 10 mm collimator and a 45° beam angle to minimize dose delivery to normal tissues. The Enpp1 inhibitor VIR3 was delivered through oral gavage starting 1 day prior to RT daily for 21 days. Tumors were measured using calipers in two directions and reported as mean tumor diameter. Survival curves were based on an endpoint of tumor diameter of greater than 12 mm in any direction.
To deplete CD8 T cells, 200 µg of depleting anti-CD8b (53 − 5.8, BioXCell, West Lebanon, NH) were administered intraperitoneally. This administration took place one day before the first dose of Vir3, followed by two additional anti-CD8b administrations at 7-day intervals.

Enpp1 [2] = biological target: T2, Enpp1 (Homo sapiens, UniProt P22413); assay: Enzymatic inhibition of recombinant ENPP1 cGAMP hydrolysis (AMP-Glo); assay type: biochemical; set-up: purchased R&D Systems 6136-EN-010; conditions: recombinant ENPP1 1.5 nM, 20 uM 2'3'-cGAMP; value is the lower threshold of the assay
T2 sequence (P22413 1-925): T1 sequence (P22413 1-925)
Method: as §1

CT26 tumors = assay: CT26 tumor model in BALB/c mice, VIR3 oral gavage +/- 12 Gy focal RT, survival; assay type: in vivo, mouse; conditions: daily oral gavage for 21 days
Method: as §2

Enpp1 [3] = biological target: T2, Enpp1; assay: Selectivity and specificity for Enpp1 (statement); conditions: additional studies necessary to confirm in vivo
MC38 and CT26 tumors = assay: RNASeq of tumors 4 days following radiation treatment; assay type: in vivo, mouse; conditions: VIR3 treatment
Method: Mice were implanted with tumors and randomized to treatment with 12 Gy RT and VIR3 as above. 4d following RT, the tumors were harvested, debulked and immediately flash frozen by rapid immersion in liquid nitrogen. Frozen tumors were crushed, treated with 500 µl of RNAlater, then frozen at -80 °C. To extract RNA, the samples were thawed on ice, and 500 µl of buffer RLT (QIAGEN Cat. No. 79219) was added and samples were homogenized. Following centrifugation, RNA was isolated using a QIAGEN RNeasy Plus Mini Kit (Cat No. 74134), according to the manufacturer’s instructions. Quality was checked on nanodrop (ND-1000) and the quantity of RNA was determined on Qubit 4 flourometer. To prepare for sequencing, samples were processed using an Illumnia TruSeq® Stranded mRNA Library Prep kit with Illumina TruSeq RNA Single Indexes Set A and Set B barcoding kits. An Illumnia NovaSeq 6000 S1 Reagent Kit v1.5 was used to make RNA libraries along with a NovaSeq XP 2-Lane Kit v1.5. RNA libraries were sequenced on NovaSeq 6000.
Demultiplexed fastq files for all samples were first processed with FastQC for general quality control. All the samples in the sequencing run passed read level QC with at least 17 million reads per sample. Average read depth across all samples were 51 million reads. Raw illumina BCL data was demultiplexed using Illumina bcl2fastq2 v2.20. Gene expression counts were quantified using salmon-v.1.1.0 [76] for all samples sequenced. Differential gene expression analysis was performed using the R software package edgeR[77]. Differential gene expression analysis was performed on all groups of Tumor+/-Drug+/-RT combinations. Gene set enrichment analysis was performed using GSEA v4.3.2 Preranked method[78],[79]. The following genesets; c3.all.v2023.2.Hs.symbols.gmt, c5.all.v2023.2.Hs.symbols.gmt, c7.all.v2023.2.Hs.symbols.gmt from Molecular Signatures Database (gsea-msigdb.org) were used for enrichment analysis.

[4] = In vivo pharmacokinetics, IV and PO; conditions: mouse
Method: For pharmacokinetic analysis, female C57BL6 mice were dosed with Vir-3 by either IV administration or oral gavage or IV administration either once or daily for 5 days. 3 mice were used per time point with staggered groups to cover all times. Blood was collected at 0.25, 0.5, 1, 3-, 5-, 8- and 24-hours post-dose into heparinized tubes. Plasma was prepared from each sample and protein precipitated prior to LC-MS/MS injection. Levels of Vir-3 were quantitated, and data was analyzed using Certara’s Phoenix Winnonlin.

[5] = Toxicity observation in treated mice; assay type: in vivo; conditions: mice treated with oral VIR3
[6] = tested on: cDC1 and cDC2 in MC38 tumors; assay: Flow cytometry of myeloid infiltration in MC38 tumors; assay type: in vivo, mouse; conditions: 4 days following radiation time point (d18)
Method: Analysis of tumor infiltrating myeloid cells was performed as previously described. Briefly, following dissection, tumors were weighed and minced into small fragments, then transferred into C tubes from Miltenyi Biotec containing enzyme digest mix with 250U/mL collagenase IV (Worthington Biochemical, #LS004188), 30U/mL DNase I (Millipore-Sigma, #4536282001), 5mM CaCl2, 5% heat inactivated FBS and HBSS. Tissue was dissociated using a GentleMACS tissue dissociator from Miltenyi Biotech. This was followed by incubation at 37 °C for 30 min with agitation. Enzymatic reactions were quenched using ice cold RPMI containing 10% FBS and 2mM EDTA. Single cell suspensions were then filtered through 100 μm (tumor) or 40 μm (dLN) nylon cell strainers to remove macroscopic debris. Cells were washed and counted for staining. 2 × 10^6 cells were stained with Zombie Aqua Viability Dye from BioLegend (#423102) in PBS for 10 min on ice, then Fc receptors were blocked with anti-CD16/CD32 antibodies from BD Biosciences (2.4G2) for an additional 10 min. After centrifugation, the supernatant was removed and cell were stained with a surface antibody cocktail containing in FACS buffer (PBS, 2mM EDTA, 2% FBS) and Brilliant Stain Buffer Plus from BD Biosciences (#566385) for 20 min on ice. […] Data were analyzed using FlowJo software from Tree Star, v10.7. […]

COc1ccc2c(Nc3ccc(S(=N)(=O)NCC(C)O)cc3)ccnc2c1 (centres unmarked) [VIR3]
EC50 [1]: 6.7 nM | response to radiation therapy (survival), VIR3 + RT (MC38 tumors; MC38 tumors in C57BL/6 mice, daily oral gavage for 21 days, 12 Gy on second day of dosing): significantly improved the response to radiation therapy | tumor growth, VIR3 alone (MC38 tumors; MC38 tumors in C57BL/6 mice, daily oral gavage for 21 days, no RT): did not impact tumor growth alone | response to RT + VIR3 with loss of IFNAR1 in host cells (MC38 tumors; MC38 tumors in IFNAR1-/- mice): completely abrogated all responses to treatment | tumor control by RT + VIR3 with loss of STING in host cells (MC38 tumors; MC38 tumors in STING-/- mice, no statistically significant difference in survival by logrank test): fewer mice cured | tumor control by RT + VIR3 with CD8 depletion (MC38 tumors; MC38 tumors, wt mice, anti-CD8 given): abrogated tumor control | IC50 (Enpp1 [2]): < 0.75 nM | response to radiation therapy (survival), VIR3 + RT (CT26 tumors; 12 Gy on day 14): significantly improved the response to radiation therapy | tumor growth, VIR3 alone (CT26 tumors; no RT): did not impact tumor growth alone | selectivity and specificity for Enpp1 (Enpp1 [3]): high selectivity and specificity | Cdkn1a and Ccl2 gene expression in tumor (MC38 and CT26 tumors; CT26 and MC38 tumors): not impacted | Tsc33d3 gene expression in tumor (MC38 and CT26 tumors; both CT26 and MC38 tumors): upregulated | Wee1 gene expression in tumor (MC38 and CT26 tumors; untreated and irradiated CT26 and MC38 tumors, FDR correction): significantly regulated | Cmax, total ([4]; P.O. 60 mg/kg): 795 ng/mL | oral bioavailability (in words) ([4]; comparing IV and PO routes): low | half-life ([4]; female, C57BL6, plasma, iv, I.V. 1 mg/kg): 48.3 h | clearance ([4]; female, C57BL6, plasma, iv, I.V. 1 mg/kg, approximate given extrapolation from a portion of AUCinf): ~27.7 mL/min/kg | Vd ([4]; female, C57BL6, plasma, iv, I.V. 1 mg/kg, read-out: Vss): 52.5 L/kg | bioavailability ([4]; female, C57BL6, plasma, oral, P.O. 60 mg/kg vs I.V. 1 mg/kg): 5.7% | half-life ([4]; female, C57BL6, plasma, po, P.O. 60 mg/kg): 24.3 h | AUC(0-t) ([4]; female, C57BL6, plasma, po, P.O. 60 mg/kg, read-out: AUC0-last, total): 1420 ng·h/mL | toxicity [5]: toxicity was not observed | dendritic cells (cDC1, cDC2) in tumor, VIR3 alone [6]: can cause DC loss
